Source: US12171797B2, “Composition for ameliorating premenstrual syndrome symptoms, including chrysanthemum zawadskii extract” (GENENCELL INC., priority 2019, dated 2024)

System: hyperprolactinemia-induced female rats
Test: Hyperprolactinemia-induced (metoclopramide) animal model of premenstrual syndrome, serum prolactin and progesterone by ELISA
Assay type: in vivo
Conditions: 50 mg/kg metoclopramide to the abdominal cavity for 5 days
Description: Metoclopramide is used as an antiemetic drug, and increases the secretion of prolactin by inhibiting dopamine secretion, and accordingly, it is known as a drug that inhibits the secretion of progesterone, luteinizing hormone, and follicle-stimulating hormone (Wang et al., 2014). Therefore, in the present invention, 50 mg/kg of metoclopramide was administered to the abdominal cavity of female rats for 5 days, after which hyperprolactinemia was induced to establish an animal model of premenstrual syndrome caused by hormone secretion disorder. Rats (females) were obtained from Raonbio, and were acclimatized for 1 week while general solid feed and water were freely supplied thereto. The environmental conditions of the animal room were set to a temperature of 23±3° C., a relative humidity of 50±10%, a lighting time of 12 hours (8 am to 8 pm), a ventilation frequency of 10 to 20 times/hour, and an illumination intensity of 150 to 300 Lux. During the experiment, the temperature and humidity of the animal room were automatically controlled using a thermo-hygrostat. […] After termination of the experiment, blood was collected, serum was isolated therefrom, and the amounts of secreted prolactin and progesterone in the serum were measured using an ELISA kit. […]

## CCN(CC)CCNC(=O)c1cc(Cl)c(N)cc1OC [metoclopramide, Metoclopramide]
FIG. 1
  Prolactin levels in the serum after model induction: increased
FIG. 2
  Progesterone levels in the serum after model induction (fraction of normal): about ⅕
